Consider 2 compounds from US4022787A (priority 1975, dated 1977).

SMILES strings stand for the structures. Structures can show the parent of a compound that is named as a salt.

Assay [1] has as its system rabbit eye pupil. Particulars: in vivo.
Assay [2] concerns sweat glands. Particulars: cited from earlier work.

`CN1[C@@H]2CC[C@H]1C[C@@H](OC(=O)C(CO)c1ccccc1)C2` (some centres unmarked) [Atropine sulfate]: in assay [1], the “rabbit eye pupil result compared with test compound” value is on record as “gave similar results”.

`CN1C2CC(OC(=O)C(COC(=O)c3ccccc3)c3ccccc3)CC1C1OC12` (centres unmarked) [benzoyl ester of scopolamine]: the sweat inhibition result in assay [2] is given as “valuable for sweat inhibition”.
